Here are results for 26 compounds from patent publication EP1228058B1, “BENZOPYRANYL GUANIDINE DERIVATIVES, PROCESS FOR PREPARATION THEREOF, AND PHARMACEUTICAL COMPOSITIONS CONTAINING THEM” (Dongbu Hannong Chemical Co., Ltd., priority 1999, dated 2001).

A short description of this data set: Acute oral toxicity test in rats. As to conditions: rat, in vivo, single oral dose in 0.5% methyl cellulose, read-out: lethal dose (LD50) for oral administration. The protocol: In this test six-week old SPF SD rats were used with two rats assigned to each group. The compounds of examples 1, 2, 3, 5, 7, 8, 9, 10, 13, 14, 15, 19, 22, 23, 24, 25, 26, 28, 29, 30, 31, 32, 33, 34, 35, 36, 37, 38, 39, 40, 41, 44, 46, 47, 48, 49, 51, 52, 57, 58, 60, 62, 64, 67, 68, 69, 71 and 72 were suspended in 0.5% methyl cellulose, respectively, and administered orally at a single dose of 1 g/kg using a ball-tipped needle. The dosing volume was 10 ml/kg. […] All survivors at the end of the observation period underwent laparotomy under ether anesthesia and the blood samples were taken from the abdominal aorta for hematological tests and biochemical analysis. After sacrificing the animals, autopsy was performed for macroscopic observation of the organs and tissues. Tissue samples of vital organs from macroscopic legion were removed and fixed in 10% neutral buffered formalin solution, then processed by standard procedures for histopathology and examined under light microscope. There were no significant changes in clinical symptoms, body weight and mortalities. Also in hematology, serum chemistry parameters and macroscopic observation, no drug-related changes were observed.
For `COC(OC)[C@]1(C)Oc2ccc([N+](=O)[O-])cc2[C@H](NC(=NC#N)Nc2ccc(Cl)cc2)[C@H]1O` [Example 1, (2R, 3R, 4S)-N''-cyano-N-(6-nitro-3,4-dihydro-3-hydroxy-2-methyl-2-dimethoxymethyl-2H-benzopyran-4-yl)-N'-(4-chlorophenyl)guanidine], the LD50 is > 1000 mg/kg. For `COC(OC)[C@]1(C)Oc2ccc([N+](=O)[O-])cc2[C@H](NC(=NC#N)Nc2cccc(Cl)c2)[C@H]1O` [Example 3, (2R, 3R, 4S)-N''-cyano-N-(6-nitro-3,4-dihydro-3-hydroxy-2-methyl-2-dimethoxymethyl-2H-benzopyran-4-yl)-N'-(3-chlorophenyl)guanidine], the LD50 is > 1000 mg/kg. As for `COC(OC)[C@]1(C)Oc2ccc([N+](=O)[O-])cc2[C@H](NC(=NC#N)Nc2ccc([N+](=O)[O-])cc2)[C@H]1O` [Example 5, (2R, 3R, 4S)-N''-cyano-N-(6-nitro-3,4-dihydro-3-hydroxy-2-methyl-2-dimethoxymethyl-2H-benzopyran-4-yl)-N'-(4-nitrophenyl)guanidine], the figure is > 1000 mg/kg. Under `COc1ccc(NC(=NC#N)N[C@H]2c3cc([N+](=O)[O-])ccc3O[C@@](C)(C(OC)OC)[C@@H]2O)cc1` [Example 8, (2R, 3R, 4S)-N''-cyano-N-(6-nitro-3,4-dihydro-3-hydroxy-2-methyl-2-dimethoxymethyl-2H-benzopyran-4-yl)-N'-(4-methoxyphenyl) guanidine] stands > 1000 mg/kg. Under `COc1ccc(NC(=NC#N)N[C@@H]2c3cc([N+](=O)[O-])ccc3O[C@@](C)(C(OC)OC)[C@H]2O)cc1` [Example 9, (2R, 3S, 4R)-N''-cyano-N-(6-nitro-3,4-dihydro-3-hydroxy-2-methyl-2-dimethoxymethyl-2H-benzopyran-4-yl)-N'-(4-methoxyphenyl) guanidine] stands > 1000 mg/kg. For the compound `COC(OC)[C@@]1(C)Oc2ccc([N+](=O)[O-])cc2[C@@H](NC(=NC#N)Nc2cccc(Cl)c2)[C@@H]1O` [Example 13, (2S, 3S, 4R)-N''-cyano-N-(6-nitro-3,4-dihydro-3-hydroxy-2-methyl-2-dimethoxymethyl-2H-benzopyran-4-yl)-N'-(3-chlorophenyl)guanidine], the LD50 was > 1000 mg/kg.

Consider `COC(OC)[C@@]1(C)Oc2ccc([N+](=O)[O-])cc2[C@H](NC(=NC#N)Nc2cccc(C(F)(F)F)c2)[C@H]1O` [Example 14, (2S, 3R, 4S)-N''-cyano-N-(6-nitro-3,4-dihydro-3-hydroxy-2-methyl-2-dimethoxymethyl-2H-benzopyran-4-yl)-N'-(3-trifluoromethylphenyl)guanidine], for which the LD50 was > 1000 mg/kg.

For `COC(OC)[C@]1(C)Oc2ccc([N+](=O)[O-])cc2[C@@H](NC(=NC#N)Nc2ccc(C)cc2)[C@@H]1O` [Example 19, (2R, 3S, 4R)-N''-cyano-N-(6-nitro-3,4-dihydro-3-hydroxy-2-methyl-2-dimethoxymethyl-2H-benzopyran-4-yl)-N'-(4-methylphenyl)guanidine], the LD50 was > 1000 mg/kg. Under `COC(OC)[C@]1(C)Oc2ccc([N+](=O)[O-])cc2[C@@H](NC(=NC#N)NCc2ccccc2)[C@@H]1O` [Example 23, (2R, 3S, 4R)-N''-cyano-N-(6-nitro-3,4-dihydro-3-hydroxy-2-methyl-2-dimethoxymethyl-2H-benzopyran-4-yl)-N'-benzylguanidine] stands > 1000 mg/kg; under `COC(OC)[C@]1(C)Oc2ccccc2[C@H](NC(=NC#N)Nc2ccc(Cl)cc2)[C@H]1O` [Example 26, (2R, 3R, 4S)-N''-cyano-N-(3,4-dihydro-3-hydroxy-2-methyl-2-dimethoxymethyl-2H-benzopyran-4-yl)-N'-(4-chlorophenyl)guanidine], > 1000 mg/kg. Under `C[C@]1(CO)Oc2ccc([N+](=O)[O-])cc2[C@H](NC(=NC#N)Nc2ccc(Cl)cc2)[C@H]1O` [Example 28, (2R, 3R, 4S)-N''-cyano-N-(6-nitro-3,4-dihydro-3-hydroxy-2-methyl-2-hydroxymethyl-2H-benzopyran-4-yl)-N'-(4-chlorophenyl)guanidine] stands > 1000 mg/kg; under `C[C@]1(CO)Oc2ccc([N+](=O)[O-])cc2[C@@H](NC(=NC#N)Nc2ccc(Cl)cc2)[C@@H]1O` [Example 29, (2R, 3S, 4R)-N''-cyano-N-(6-nitro-3,4-dihydro-3-hydroxy-2-methyl-2-hydroxymethyl-2H-benzopyran-4-yl)-N'-(4-chlorophenyl)guanidine], > 1000 mg/kg. As for `COC[C@@]1(C)Oc2ccc([N+](=O)[O-])cc2[C@H](NC(=NC#N)Nc2ccc(Cl)cc2)[C@H]1O` [Example 30, (2R, 3R, 4S)-N''-cyano-N-(6-nitro-3,4-dihydro-3-hydroxy-2-methyl-2-methoxymethyl-2H-benzopyran-4-yl)-N'-(4-chlorophenyl)guanidine], the figure is > 1000 mg/kg.

As to `COC[C@@]1(C)Oc2ccc([N+](=O)[O-])cc2[C@@H](NC(=NC#N)Nc2ccc(Cl)cc2)[C@@H]1O` [Example 31, (2R, 3S, 4R)-N''-cyano-N-(6-nitro-3,4-dihydro-3-hydroxy-2-methyl-2-methoxymethyl-2H-benzopyran-4-yl)-N'-(4-chlorophenyl)guanidine], the LD50 is > 1000 mg/kg. Under `COC(OC)[C@@]1(C)Oc2ccc([N+](=O)[O-])cc2[C@@H](NC(=NC#N)Nc2ccccc2Cl)[C@@H]1O` [Example 33, (2S, 3S, 4R)-N''-cyano-N-(6-nitro-3,4-dihydro-3-hydroxy-2-methyl-2-dimethoxymethyl-2H-benzopyran-4-yl)-N'-(2-chlorophenyl)guanidine] stands > 1000 mg/kg; under `COC(OC)[C@@]1(C)Oc2ccc([N+](=O)[O-])cc2[C@H](NC(=NC#N)Nc2ccccc2C(F)(F)F)[C@H]1O` [Example 34, (2S, 3R, 4S)-N''-cyano-N-(6-nitro-3,4-dihydro-3-hydroxy-2-methyl-2-dimethoxymethyl-2H-benzopyran-4-yl)-N'-(2-trifluoromethylphenyl)guanidine], > 1000 mg/kg. Under `COC(OC)[C@@]1(C)Oc2ccc([N+](=O)[O-])cc2[C@@H](NC(=NC#N)Nc2ccccc2C(F)(F)F)[C@@H]1O` [Example 35, (2S, 3S, 4R)-N''-cyano-N-(6-nitro-3,4-dihydro-3-hydroxy-2-methyl-2-dimethoxymethyl-2H-benzopyran-4-yl)-N'-(2-trifluoromethylphenyl)guanidine] stands > 1000 mg/kg. Under `COC(OC)[C@@]1(C)Oc2ccc([N+](=O)[O-])cc2[C@H](NC(=NC#N)NCc2ccccc2Cl)[C@H]1O` [Example 36, (2S, 3R, 4S)-N''-cyano-N-(6 - nitro-3,4-dihydro-3-hydroxy-2-methyl-2-dimethoxymethyl-2H-benzopyran-4-yl)-N'-(2-chlorobenzyl)guanidine] stands > 1000 mg/kg. `COC(OC)[C@@]1(C)Oc2ccc([N+](=O)[O-])cc2[C@@H](NC(=NC#N)NCc2ccccc2Cl)[C@@H]1O` [Example 37, (2S, 3S, 4R)-N''-cyano-N-(6-nitro-3,4-dihydro-3-hydroxy-2-methyl-2-dimethoxymethyl-2H-benzopyran-4-yl)-N'-(2-chlorobenzyl)guanidine]: the LD50 was > 1000 mg/kg.

For `COC(OC)[C@]1(C)C=C(NC(=NC#N)NCc2ccccc2)c2cc([N+](=O)[O-])ccc2O1` [Example 39, (2S)-N''-cyano-N-(6-nitro-2-methyl-2-dimethoxymethyl-2H-benzopyran-4-yl)-N'-benzylguanidine], the LD50 was > 1000 mg/kg. For `COC(OC)[C@@]1(C)Oc2ccc(C#N)cc2[C@H](NC(=NC#N)Nc2ccc(Cl)cc2)[C@H]1O` [Example 44, (2S, 3R, 4S)-N''-cyano-N-(6-cyano-3,4-dihydro-3-hydroxy-2-methyl-2-dimethoxymethyl-2H-benzopyran-4-yl)-N'-(4-chlorophenyl)guanidine], the LD50 was > 1000 mg/kg. Under `COC(OC)[C@@]1(C)Oc2ccc(C#N)cc2[C@H](NC(=NC#N)NCc2ccccc2)[C@H]1O` [Example 46, (2S, 3R, 4S)-N''-cyano-N-(6-cyano-3,4-dihydro-3-hydroxy-2-methyl-2-dimethoxymethyl-2H-benzopyran-4-yl)-N'-benzylguanidine] stands > 1000 mg/kg. As for `COC(OC)[C@@]1(C)Oc2ccc(Br)cc2[C@@H](NC(=NC#N)NCc2ccccc2)[C@@H]1O` [Example 47, (2S, 3S, 4R)-N''-cyano-N-(6-bromo-3,4-dihydro-3-hydroxy-2-methyl-2-dimethoxymethyl-2H-benzopyran-4-yl)-N'-benzylguanidine], the figure is > 1000 mg/kg. As for `COc1ccc(CNC(=NC#N)N[C@@H]2c3cc([N+](=O)[O-])ccc3O[C@](C)(C(OC)OC)[C@H]2O)cc1OC` [Example 48, (2S, 3S, 4R)-N''-cyano-N-(6-nitro-3,4-dihydro-3-hydroxy-2-methyl-2-dimethoxymethyl-2H-benzopyran-4-yl)-N'-(3,4-dimethoxybenzyl) guanidine], the figure is > 1000 mg/kg.

As for `COc1ccc(CNC(=NC#N)N[C@@H]2c3cc(N)ccc3O[C@](C)(C(OC)OC)[C@H]2O)cc1OC` [Example 49, (2S, 3S, 4R)-N''-cyano-N-(6-amino-3,4-dihydro-3-hydroxy-2-methyl-2-dimethoxymethyl-2H-benzopyran-4-yl)-N'-(3,4-dimethoxybenzyl) guanidine], the LD50 was > 1000 mg/kg. With `COc1ccc(CNC(=NC#N)N[C@@H]2c3cc(N)ccc3O[C@](C)(C(OC)OC)[C@H]2O)cc1` [Example 51, (2S,3S,4R)-N''-cyano-N-(6-amino-3,4-dihydro-3-hydroxy-2-methyl-2-dimethoxymethyl-2H-benzopyran-4-yl)-N'-(4-methoxybenzyl) guanidine], the LD50 was > 1000 mg/kg.
